# Data as given in patent US8541476B2, “Compounds for treatment of malignant tumors” (The Trustees of the University of Pennsylvania, priority 2007, dated 2013).
# Entries after “also recorded” stand apart in the source; their conditions may differ.
# Key:
# [1] = NS-123 toxicity evaluation in nu/nu mice; format: in vivo
# Experimental: Female nu/nu (nude) mice (6-8 weeks old; Charles River, Wilmington, Mass.) were maintained at the WFUSM animal facility under conditions approved by the Animal Care and Use Committee. NS-123 in DMSO was mixed with 30% propylene glycol (DMSO concentration<1%) and administered via an i.p. injection at a dose of 50 mg/kg to three mice on three consecutive days. The mice were monitored over 30 days for signs of drug-related toxicity, lethality, and weight loss. Mice were euthanized by CO2 asphyxiation and necropsy was performed by a veterinary pathologist. The heart, lung, liver, spleen, kidney, brain, salivary gland, gastrointestinal tract, ovary, uterus, adrenal gland, and thyroid gland were preserved in 10% neutral buffered formalin for at least 48 hours. The tissues were embedded in paraffin, processed routinely for histology, cut at 4-6 microns, stained with hematoxylin and eosin and examined by light microscopy.
# To test this hypothesis, 50 mg/kg (i.p.) was administered to nude mice for 3 consecutive days. Clinical signs of drug toxicity and lethality were not observed over the following 30 days.
# [2] = system: γ-H2AX, P-CHK2, P-ATM, P-DNA-PKcs in U251 cells; assay: Immunoblotting of dsDNA damage-dependent signaling after IR; format: cell-based, human; details: U251, 30 μM 4 hours prior to IR, 6 hours after IR
# Experimental: Following treatments, whole cell and nuclear extracts were prepared. Equal lysate volumes were loaded on 15% and 12% SDS-PAGE gels to assay for γ-H2AX and P-CHK2 proteins, respectively. To assay for P-ATM and P-DNA-PKcs protein, 30-50 μg of nuclear protein were diluted with an equal volume of 2×SDS and resolved with 6% SDS-PAGE gels. Proteins were transferred to polyvinylidene difluoride (PVDF) membranes and then incubated with either anti-γ-H2AX antibody (1:5000; Upstate, Charlottesville, Va.), anti-P-CHK2 antibody (1:1000; Cell Signaling, Beverly, Mass.), anti-phospho-ATM (pSer^1981) antibody (1:300 Calbiomchem, San Diego, Calif.), or anti-phospho-DNA-PKcs (T2609) antibody (1:500; Abcam, Cambridge, Mass.). To confirm equivalent loading and protein transfer, membranes were probed with mouse anti-human β-actin monoclonal antibody (Sigma) or anti-DNA-PKcs monoclonal antibody (25-4 at 1:5000; NeoMarkers, Fremont, Calif.). All membranes were then incubated with horseradish peroxidase-conjugated anti-mouse or anti-rabbit secondary antibodies (Santa Cruz Biotechnology). Immunoreactive bands were detected using ECL Plus chemiluminescence (Amersham Biosciences).
# The levels of γ-H2AX, P-CHK2, P-ATM, and P-DNA-PKcs were assayed in U251 cells by immunoblotting at various time points after IR. Cells were treated with DMSO (control) or 30 μM NS-123 for 4 hours prior to IR. […]
# [3] = system: Nontransformed human astrocytes (NHA); assay: Modified MTS survival assay on normal human astrocytes after IR; format: cell-based; details: 5 μM, 8 hours or 12 hours pretreatment, versus DMSO
# Experimental: (§1) Clonogenic survival assays were performed as described by Koumenis, et al., 2002, (Mol. Cell Biol. 22:7405-16), which reference is incorporated herein in its entirety. U251, HT-29, or A549 cells were plated at different densities in triplicate, treated with NS-123 or DMSO (alone) and irradiated 4, 8, or 12 hours later with a range of doses using ^137Cs γ-rays at a dose rate of ˜4 Gy/minute (min). One hour after irradiation, the medium was replaced with fresh medium without NS-123 or DMSO. The cells were fixed 7-14 days after IR and stained with crystal violet. Colonies greater than 50 cells were then counted and normalized against the non-irradiated controls for each treatment. […] NHA cells were plated in 24-well plates in quadruplicate at equal density, treated with equal volumes of NS-123 or DMSO (alone) and irradiated as described above. One hour after irradiation, the medium was replaced with fresh ABM. Five days later, the MTS assay was used to evaluate cell survival as above.
# The objective of any combination of therapeutic agents is to achieve an improved therapeutic result, which is a function both of tumor response and of normal tissue damage. No improvement in the therapeutic result of IR is gained utilizing a drug that increases the sensitivity of both tumor and normal cells to the same extent. […]
# [4] = system: A549 non-small cell lung cancer cells; assay: Clonogenic survival assay, A549 cells; format: cell-based, human; details: A549, 5 μM for 12 hours prior to IR
# Experimental: as §1
# To exclude the possibility that the radiosensitizing effect of NS-123 was specific to a single cell line, the radiosensitizing effect of NS-123 was tested on additional cell lines of different tissue origin. Clonogenic survival assays were performed. […]
# U251 tumors xenografts = assay: U251 xenograft mouse model, tumor growth delay; format: in vivo
# Experimental: U251 cells (5×10^6) were suspended in 0.1 mL of PBS and then injected into the flanks of nu/nu female nude mice. After tumors formed (45±10 mm^3), mice were randomly assigned into one of four groups: DMSO+Sham IR, DMSO+5 Gy IR, NS-123+Sham IR, and NS-123+5 Gy IR. NS-123 was administered as described above. Groups not receiving NS-123 were treated with the same volume of DMSO alone dissolved in 30% propylene glycol. Mouse flanks were irradiated 4 hours following the second injection with 5 Gy (Precision X-Ray, Inc, North Branford, Conn.) given as one fraction or Sham IR. Tumor volumes were measured every other day based on the formula: Volume=length^2×width where length was always the longest dimension.
# Data are presented as average relative tumor volume (RTV), where: RTV[Dayx]=Volume[Dayx]/Volume[Day0]
# The measurement of tumor regrowth was calculated by the time needed to grow to 10× the treatment volume. As per Seo et al, 2005, (Clin. Cancer Res. 11:7499-507), the in vivo radiosensitizer enhancement ratio was defined as the ratio: TNS-123+IR/TDMSO+IR where T is tumor regrowth delay (days)
# To investigate in a more sophisticated model the radiosensitization observed by NS-123 in ZF, a growth delay assay of U251 tumors xenografts in nu/nu nude mice was performed. Mice were treated for 3 consecutive days with either NS-123 or DMSO (i.p.) and received either 5 Gy IR or Sham IR 4 hours after the second injection (see Table at the bottom FIG. 7A). […] Furthermore, they provide additional support for the use of the novel ZF xenograft model as a faster, more economical screening tool for potential in vivo radiosensitizing activity of lead compounds.
structure (smiles),measurement,setting,value
"CCC(=O)c1ccc(Br)c([N+](=O)[O-])c1 [NS-123, 4′-bromo-3′-nitropropiophenone]",gross and histopathological examination,"[1]; female, nu/nu (nude), mouse, in vivo, ip, 50 mg/kg",did not reveal any evidence suggestive of NS-123 associated toxicity
same,clinical signs of drug toxicity and lethality,"[1]; nude mice, 50 mg/kg i.p. 3 consecutive days, 30 days observation",not observed
same,"levels of γ-H2AX, P-CHK2, P-DNA-PKcs and P-ATM",[2],substantially higher levels
same,radiosensitization of normal human glial cells,[3],no significant increase in radiosensitization; also recorded: does not radiosensitize
same,DER at 0.1 survival,[4],1.4
same,mean time to reach Relative Tumor Volume (RTV)=10,U251 tumors xenografts; NS-123 50 mg/kg i.p. x3 days + 5 Gy IR,20 days
same,mean time to reach Relative Tumor Volume (RTV)=10,U251 tumors xenografts; NS-123 50 mg/kg i.p. x3 days + Sham IR,12 days
same,in vivo radiosensitizer enhancement ratio,U251 tumors xenografts; ratio of tumor regrowth delay NS-123+IR / DMSO+IR,2.0
